Laboratory results as given in paper doi:10.1101/2025.03.31.646177v2, “Target engagement studies and kinetic live-cell degradation assays enable the systematic characterization of HDAC6 PROTACs” (biorxiv, 2025).

Experiments:
[1] = target: T1, HDAC6-HiBiT (endogenously tagged HDAC6 in HeLa HDAC6-HiBiT LgBiT cells) (Homo sapiens, UniProt Q9UBN7); test: NanoBRET competition with tracer […]; type: cell-based
T1 sequence (Q9UBN7 1-1215): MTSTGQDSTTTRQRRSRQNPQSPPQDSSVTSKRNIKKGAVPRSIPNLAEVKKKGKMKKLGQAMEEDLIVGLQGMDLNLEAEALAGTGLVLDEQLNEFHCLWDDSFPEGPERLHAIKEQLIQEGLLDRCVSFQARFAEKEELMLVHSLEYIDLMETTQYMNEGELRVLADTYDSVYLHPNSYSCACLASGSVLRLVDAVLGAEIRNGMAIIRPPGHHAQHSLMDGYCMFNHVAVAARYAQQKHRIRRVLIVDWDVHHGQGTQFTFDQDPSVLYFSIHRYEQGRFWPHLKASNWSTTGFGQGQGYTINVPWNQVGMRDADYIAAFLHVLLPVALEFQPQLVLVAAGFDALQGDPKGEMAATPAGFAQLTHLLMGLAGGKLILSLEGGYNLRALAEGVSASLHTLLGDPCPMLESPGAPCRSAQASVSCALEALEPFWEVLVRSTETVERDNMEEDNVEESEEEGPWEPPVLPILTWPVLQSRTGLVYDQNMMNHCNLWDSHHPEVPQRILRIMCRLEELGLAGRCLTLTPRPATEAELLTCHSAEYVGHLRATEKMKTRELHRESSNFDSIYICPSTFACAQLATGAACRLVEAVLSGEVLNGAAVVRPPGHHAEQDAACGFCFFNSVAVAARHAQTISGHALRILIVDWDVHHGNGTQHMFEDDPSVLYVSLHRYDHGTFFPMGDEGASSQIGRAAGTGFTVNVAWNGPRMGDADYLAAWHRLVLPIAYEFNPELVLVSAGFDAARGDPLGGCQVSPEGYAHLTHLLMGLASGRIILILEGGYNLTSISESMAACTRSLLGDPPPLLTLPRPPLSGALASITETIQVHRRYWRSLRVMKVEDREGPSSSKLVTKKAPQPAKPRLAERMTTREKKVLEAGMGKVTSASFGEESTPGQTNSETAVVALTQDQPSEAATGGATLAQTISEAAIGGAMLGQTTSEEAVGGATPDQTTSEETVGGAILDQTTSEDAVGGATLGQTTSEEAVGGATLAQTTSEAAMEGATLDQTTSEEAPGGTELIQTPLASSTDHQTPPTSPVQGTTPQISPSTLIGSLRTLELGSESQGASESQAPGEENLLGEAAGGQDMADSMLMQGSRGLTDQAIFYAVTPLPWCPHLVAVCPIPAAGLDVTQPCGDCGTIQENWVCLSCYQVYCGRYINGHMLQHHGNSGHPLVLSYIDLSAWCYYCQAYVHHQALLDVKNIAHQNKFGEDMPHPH

[2] = target: HDAC2 (human recombinant) (Homo sapiens, UniProt Q92769); test: fluorogenic HDAC assay (ZMAL substrate, trypsin-coupled); type: biochemical
Description: fluorogenic HDAC assay (ZMAL substrate, trypsin-coupled) on HDAC2 (human recombinant)

[3] = target: T1, HDAC6-HiBiT (endogenously tagged HDAC6 in HeLa HDAC6-HiBiT LgBiT cells); test: NanoBRET saturation binding; type: cell-based
[4] = target: T2, HDAC6 (human recombinant) (Homo sapiens, UniProt Q9UBN7); test: fluorogenic HDAC assay (ZMAL substrate, trypsin-coupled); type: biochemical
T2 sequence (Q9UBN7 1-1215): T1 sequence (Q9UBN7 1-1215)
Description: fluorogenic HDAC assay (ZMAL substrate, trypsin-coupled) on HDAC6 (human recombinant)

[5] = target: HDAC1 (human recombinant) (Homo sapiens, UniProt Q13547); test: as above; type: biochemical
Description: fluorogenic HDAC assay (ZMAL substrate, trypsin-coupled) on HDAC1 (human recombinant)

HDAC1 (human recombinant), sequence (Q13547 whole entry): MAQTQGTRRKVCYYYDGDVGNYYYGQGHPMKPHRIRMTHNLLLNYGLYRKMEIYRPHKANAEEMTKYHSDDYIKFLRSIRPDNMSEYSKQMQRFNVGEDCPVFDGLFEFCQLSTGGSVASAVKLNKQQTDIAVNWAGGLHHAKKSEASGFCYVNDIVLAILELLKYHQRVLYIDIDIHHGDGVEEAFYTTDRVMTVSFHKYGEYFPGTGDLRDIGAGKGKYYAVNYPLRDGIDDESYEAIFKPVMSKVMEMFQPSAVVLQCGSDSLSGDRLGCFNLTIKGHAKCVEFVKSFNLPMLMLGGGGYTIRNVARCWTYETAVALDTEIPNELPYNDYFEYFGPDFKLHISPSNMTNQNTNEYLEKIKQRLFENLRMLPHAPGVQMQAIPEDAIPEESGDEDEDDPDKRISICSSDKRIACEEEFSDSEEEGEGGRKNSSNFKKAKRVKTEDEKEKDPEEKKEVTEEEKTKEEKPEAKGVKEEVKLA
HDAC2 (human recombinant), sequence (Q92769 whole entry): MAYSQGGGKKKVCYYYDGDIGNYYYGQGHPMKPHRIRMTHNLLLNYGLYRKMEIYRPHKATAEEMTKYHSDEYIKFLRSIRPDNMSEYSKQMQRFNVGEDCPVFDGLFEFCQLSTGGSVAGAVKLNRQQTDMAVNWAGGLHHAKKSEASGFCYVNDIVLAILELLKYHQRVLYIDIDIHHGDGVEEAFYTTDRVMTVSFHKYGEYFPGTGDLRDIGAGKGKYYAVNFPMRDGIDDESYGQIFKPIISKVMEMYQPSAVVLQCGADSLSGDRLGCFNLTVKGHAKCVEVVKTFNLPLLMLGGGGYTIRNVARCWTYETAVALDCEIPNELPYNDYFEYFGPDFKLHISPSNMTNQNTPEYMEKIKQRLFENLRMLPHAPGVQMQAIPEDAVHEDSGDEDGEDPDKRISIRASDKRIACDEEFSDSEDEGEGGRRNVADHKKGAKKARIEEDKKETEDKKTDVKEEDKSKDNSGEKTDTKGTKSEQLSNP

For `FC(F)c1nnc(-c2cnc(NCc3ccccc3)nc2)o1` [BK1], which IC50 [1] is on record?
The IC50 was 0.075 ± 0.03 µM.

What does the source list for `CN(C)c1ccc2c(-c3ccc(C(=O)NCCOCCOCCOCCn4cc(COc5ccc(C(=O)NCCCCCCC(=O)NO)cc5)nn4)cc3C(=O)[O-])c3ccc(N(C)C)cc3[o+]c2c1` [compound 4, tracer 4]?
IC50 [2]: 0.34 ± 0.04 µM; Kd [3]: 0.12 ± 0.04 µM; IC50 [4]: 0.018 ± 0.001 µM; IC50 [5]: 0.2 ± 0.02 µM

`CN(C)c1ccc2c(-c3ccc(C(=O)NCCCn4cc(COc5ccc(C(=O)NCCCCCCC(=O)NO)cc5)nn4)cc3C(=O)[O-])c3ccc(=[N+](C)C)cc-3oc2c1` [compound 5, 2-[6-(Dimethylamino)-3-(dimethyliminio)-3H-xanthen-9-yl]-5-[(3-{4-[(4-{[7-(hydroxyamino)-7-oxoheptyl]carbamoyl}phenoxy)methyl]-1H-1,2,3-triazol-1-yl}propyl)carbamoyl]benzoate] was tested. Which IC50 [2] did it give?
The IC50 was 0.22 ± 0.01 µM.

And the Kd [3]?
The Kd was 0.08 ± 0.011 µM.

What about the IC50 [4] of the same compound?
Its IC50 is 0.0091 ± 0.0001 µM.

And the IC50 [5]?
Its IC50 is 0.13 ± 0.02 µM.
